# In ChEMBL document CHEMBL4507259 (2021):
# What was measured:
# [1] = target: Substance-P receptor (Homo sapiens) (UniProt P25103); assay: NK1 (h) CEREP ligand profiling; conditions: filed as agonist, Compound concentration 10.0 uM
# [2] = target: D(2) dopamine receptor (Homo sapiens) (UniProt P14416); assay: D2S (h) CEREP ligand profiling; conditions: filed as antagonist, Compound concentration 10.0 uM
# [3] = target: Ca2+ channel (L, diltiazem site) (benzothiazepines); voltage-gated L-type calcium channel (family) (Homo sapiens, UniProt O60840+Q01668+Q13698+Q13936); assay: Ca2+ channel (L, diltiazem site) (benzothiazepines) CEREP ligand profiling; assay type: protein assay; conditions: compound concentration 10 uM
# [4] = target: Vasoactive intestinal polypeptide receptor 1 (Homo sapiens) (UniProt P32241); assay: VPAC1 (VIP1) (h) CEREP ligand profiling; conditions: filed as agonist, Compound concentration 10.0 uM
# [5] = target: Protein-tyrosine kinase 6 (Homo sapiens) (UniProt Q13882); conditions: Compound concentration 1000.0 nM
# [6] = target: Serine/threonine-protein kinase BRSK2 (Homo sapiens) (UniProt Q8IWQ3); conditions: Compound concentration 1000.0 nM
# [7] = target: Serine/threonine-protein kinase Chk2 (Homo sapiens) (UniProt O96017); conditions: Compound concentration 1000.0 nM
# [8] = target: Casein kinase I isoform gamma-1 (Homo sapiens) (UniProt Q9HCP0); conditions: Compound concentration 1000.0 nM
# [9] = target: Hormonally up-regulated neu tumor-associated kinase (Homo sapiens) (UniProt P57058); conditions: Compound concentration 1000.0 nM
# [10] = target: Inhibitor of nuclear factor kappa-B kinase subunit beta (Homo sapiens) (UniProt O14920); conditions: Compound concentration 1000.0 nM
# [11] = target: Insulin receptor-related protein (Homo sapiens) (UniProt P14616); conditions: Compound concentration 1000.0 nM
# [12] = target: Myosin light chain kinase 2, skeletal/cardiac muscle (Homo sapiens) (UniProt Q9H1R3); conditions: Compound concentration 1000.0 nM
# [13] = target: Serine/threonine-protein kinase Nek4 (Homo sapiens) (UniProt P51957); conditions: Compound concentration 1000.0 nM
# [14] = target: Serine/threonine-protein kinase Nek9 (Homo sapiens) (UniProt Q8TD19); conditions: Compound concentration 1000.0 nM
# [15] = target: Serine/threonine-protein kinase PAK 1 (Homo sapiens) (UniProt Q13153); conditions: Compound concentration 1000.0 nM
# [16] = test system: Phosphatidylinositol 4,5-bisphosphate 3-kinase catalytic subunit alpha isoform (Homo sapiens), P42336 [E542K]; conditions: Compound concentration 1000.0 nM
# [17] = test system: Phosphatidylinositol 4,5-bisphosphate 3-kinase catalytic subunit alpha isoform (Homo sapiens), P42336 [M1043I]; conditions: Compound concentration 1000.0 nM
# [18] = target: Serine/threonine-protein kinase PLK3 (Homo sapiens) (UniProt Q9H4B4); conditions: Compound concentration 1000.0 nM
# [19] = target: Serine/threonine-protein kinase PRP4 homolog (Homo sapiens) (UniProt Q13523); conditions: Compound concentration 1000.0 nM
# [20] = target: Proto-oncogene tyrosine-protein kinase receptor Ret (Homo sapiens) (UniProt P07949); conditions: Compound concentration 1000.0 nM
# [21] = target: Uncharacterized serine/threonine-protein kinase SBK3 (Homo sapiens) (UniProt P0C264); conditions: Compound concentration 1000.0 nM
# [22] = target: Serine/threonine-protein kinase Sgk3 (Homo sapiens) (UniProt Q96BR1); conditions: Compound concentration 1000.0 nM
# [23] = target: STE20-like serine/threonine-protein kinase (Homo sapiens) (UniProt Q9H2G2); conditions: Compound concentration 1000.0 nM
# [24] = target: SNF-related serine/threonine-protein kinase (Homo sapiens) (UniProt Q9NRH2); conditions: Compound concentration 1000.0 nM
# [25] = target: Tyrosine-protein kinase Tec (Homo sapiens) (UniProt P42680); conditions: Compound concentration 1000.0 nM
# [26] = target: Tyrosine-protein kinase receptor TYRO3 (Homo sapiens) (UniProt Q06418); conditions: Compound concentration 1000.0 nM
# [27] = target: 5-hydroxytryptamine receptor 2A (Homo sapiens) (UniProt P28223); conditions: Compound concentration 10.0 uM
# [28] = target: D(2) dopamine receptor (Homo sapiens) (UniProt P14416); conditions: Compound concentration 10.0 uM
# [29] = target: T1, Alpha-1B adrenergic receptor (Homo sapiens) (UniProt P35368); conditions: Compound concentration 10.0 uM
# T1 sequence (whole entry): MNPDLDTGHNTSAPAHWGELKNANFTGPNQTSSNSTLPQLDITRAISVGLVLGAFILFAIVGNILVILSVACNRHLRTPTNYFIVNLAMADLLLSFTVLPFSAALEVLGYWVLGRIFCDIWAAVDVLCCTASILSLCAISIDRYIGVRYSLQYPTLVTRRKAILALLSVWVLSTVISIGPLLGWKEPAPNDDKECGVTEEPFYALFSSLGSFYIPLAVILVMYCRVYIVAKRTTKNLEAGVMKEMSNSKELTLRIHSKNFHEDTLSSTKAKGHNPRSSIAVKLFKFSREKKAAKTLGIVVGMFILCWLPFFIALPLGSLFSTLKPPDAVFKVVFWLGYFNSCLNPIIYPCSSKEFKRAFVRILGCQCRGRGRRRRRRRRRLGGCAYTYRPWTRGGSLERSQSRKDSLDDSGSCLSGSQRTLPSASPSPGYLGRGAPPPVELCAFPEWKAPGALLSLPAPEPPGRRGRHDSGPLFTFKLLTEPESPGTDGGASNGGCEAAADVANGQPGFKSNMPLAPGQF
# [30] = target: T2, Muscarinic acetylcholine receptor M4 (Homo sapiens) (UniProt P08173); conditions: Compound concentration 10.0 uM
# T2 sequence (whole entry): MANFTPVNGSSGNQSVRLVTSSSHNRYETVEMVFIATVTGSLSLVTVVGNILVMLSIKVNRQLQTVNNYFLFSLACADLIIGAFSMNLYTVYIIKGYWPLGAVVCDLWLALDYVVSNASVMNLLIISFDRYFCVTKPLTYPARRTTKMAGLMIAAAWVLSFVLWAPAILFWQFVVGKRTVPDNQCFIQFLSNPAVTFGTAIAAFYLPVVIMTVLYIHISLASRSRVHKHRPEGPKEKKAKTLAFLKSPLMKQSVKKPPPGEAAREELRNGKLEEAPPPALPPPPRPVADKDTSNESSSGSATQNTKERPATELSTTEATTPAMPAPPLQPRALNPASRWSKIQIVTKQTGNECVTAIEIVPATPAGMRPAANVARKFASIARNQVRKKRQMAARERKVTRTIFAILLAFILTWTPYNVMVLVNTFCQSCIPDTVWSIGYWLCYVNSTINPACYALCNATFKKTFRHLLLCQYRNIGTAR
# D(2) dopamine receptor (Homo sapiens), sequence (P14416 whole entry): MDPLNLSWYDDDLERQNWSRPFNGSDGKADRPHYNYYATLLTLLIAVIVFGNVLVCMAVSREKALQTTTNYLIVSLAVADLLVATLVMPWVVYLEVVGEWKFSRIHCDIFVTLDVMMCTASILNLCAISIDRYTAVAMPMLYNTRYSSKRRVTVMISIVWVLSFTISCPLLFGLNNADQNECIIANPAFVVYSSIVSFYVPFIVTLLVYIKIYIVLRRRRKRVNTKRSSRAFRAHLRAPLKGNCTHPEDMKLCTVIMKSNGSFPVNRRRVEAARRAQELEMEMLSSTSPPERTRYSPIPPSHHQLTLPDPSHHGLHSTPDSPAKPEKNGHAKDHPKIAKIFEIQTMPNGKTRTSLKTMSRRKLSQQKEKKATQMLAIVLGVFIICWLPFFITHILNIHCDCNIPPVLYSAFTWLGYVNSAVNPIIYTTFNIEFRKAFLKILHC
# Casein kinase I isoform gamma-1 (Homo sapiens), sequence (Q9HCP0 whole entry, looked up, canonical isoform): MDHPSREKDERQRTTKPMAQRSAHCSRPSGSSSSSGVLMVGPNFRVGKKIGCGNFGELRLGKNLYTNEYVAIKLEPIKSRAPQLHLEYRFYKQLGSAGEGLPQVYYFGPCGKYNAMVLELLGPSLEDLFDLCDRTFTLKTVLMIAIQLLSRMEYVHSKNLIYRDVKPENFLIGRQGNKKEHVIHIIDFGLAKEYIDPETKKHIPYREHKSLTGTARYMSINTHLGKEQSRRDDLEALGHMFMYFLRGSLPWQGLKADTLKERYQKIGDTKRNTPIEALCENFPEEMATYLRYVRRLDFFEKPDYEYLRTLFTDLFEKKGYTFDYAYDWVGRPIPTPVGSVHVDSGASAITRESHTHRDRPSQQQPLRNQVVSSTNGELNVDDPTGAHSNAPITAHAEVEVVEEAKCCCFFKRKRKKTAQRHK
# Tyrosine-protein kinase receptor TYRO3 (Homo sapiens), sequence (Q06418 whole entry): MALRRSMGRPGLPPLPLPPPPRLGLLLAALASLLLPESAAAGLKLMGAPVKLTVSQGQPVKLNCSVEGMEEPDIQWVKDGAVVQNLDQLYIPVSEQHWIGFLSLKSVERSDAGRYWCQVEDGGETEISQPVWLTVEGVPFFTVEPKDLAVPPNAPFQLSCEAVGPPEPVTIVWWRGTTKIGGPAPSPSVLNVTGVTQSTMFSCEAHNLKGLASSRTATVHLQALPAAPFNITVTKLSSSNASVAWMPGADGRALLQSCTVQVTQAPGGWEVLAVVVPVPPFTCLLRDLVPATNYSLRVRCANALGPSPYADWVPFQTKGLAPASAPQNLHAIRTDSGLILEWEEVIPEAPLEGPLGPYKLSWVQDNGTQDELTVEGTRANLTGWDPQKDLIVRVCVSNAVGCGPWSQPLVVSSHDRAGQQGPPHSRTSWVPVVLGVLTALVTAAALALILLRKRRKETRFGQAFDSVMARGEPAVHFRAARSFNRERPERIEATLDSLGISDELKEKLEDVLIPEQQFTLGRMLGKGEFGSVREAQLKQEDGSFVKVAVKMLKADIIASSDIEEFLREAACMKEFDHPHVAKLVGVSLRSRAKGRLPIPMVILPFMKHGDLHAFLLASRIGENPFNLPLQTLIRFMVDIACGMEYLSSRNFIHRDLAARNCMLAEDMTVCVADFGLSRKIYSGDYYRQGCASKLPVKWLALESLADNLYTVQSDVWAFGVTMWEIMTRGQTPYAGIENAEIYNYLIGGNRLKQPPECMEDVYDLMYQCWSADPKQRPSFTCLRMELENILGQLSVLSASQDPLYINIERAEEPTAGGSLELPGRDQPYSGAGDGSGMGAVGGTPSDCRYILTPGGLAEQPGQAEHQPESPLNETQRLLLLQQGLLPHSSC
# Hormonally up-regulated neu tumor-associated kinase (Homo sapiens), sequence (P57058 whole entry): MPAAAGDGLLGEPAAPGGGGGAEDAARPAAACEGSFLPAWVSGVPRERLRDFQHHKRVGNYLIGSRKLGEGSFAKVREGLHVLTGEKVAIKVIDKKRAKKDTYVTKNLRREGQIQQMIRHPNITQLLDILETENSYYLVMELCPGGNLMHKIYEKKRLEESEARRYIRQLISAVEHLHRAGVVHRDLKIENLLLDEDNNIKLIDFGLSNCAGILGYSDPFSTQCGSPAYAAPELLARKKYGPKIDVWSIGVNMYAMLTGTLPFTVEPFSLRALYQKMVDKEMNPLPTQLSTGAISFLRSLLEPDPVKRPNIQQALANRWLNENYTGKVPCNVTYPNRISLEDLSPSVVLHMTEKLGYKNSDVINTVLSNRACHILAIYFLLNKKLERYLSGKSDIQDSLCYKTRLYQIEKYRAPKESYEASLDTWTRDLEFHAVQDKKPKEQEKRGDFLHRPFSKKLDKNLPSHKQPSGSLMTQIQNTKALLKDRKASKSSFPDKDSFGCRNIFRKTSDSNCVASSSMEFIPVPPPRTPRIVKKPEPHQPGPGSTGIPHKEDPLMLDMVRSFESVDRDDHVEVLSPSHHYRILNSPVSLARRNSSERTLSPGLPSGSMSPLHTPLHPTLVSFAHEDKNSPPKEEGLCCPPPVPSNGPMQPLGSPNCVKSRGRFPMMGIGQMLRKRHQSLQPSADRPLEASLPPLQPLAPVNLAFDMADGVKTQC
# Uncharacterized serine/threonine-protein kinase SBK3 (Homo sapiens), sequence (P0C264 whole entry): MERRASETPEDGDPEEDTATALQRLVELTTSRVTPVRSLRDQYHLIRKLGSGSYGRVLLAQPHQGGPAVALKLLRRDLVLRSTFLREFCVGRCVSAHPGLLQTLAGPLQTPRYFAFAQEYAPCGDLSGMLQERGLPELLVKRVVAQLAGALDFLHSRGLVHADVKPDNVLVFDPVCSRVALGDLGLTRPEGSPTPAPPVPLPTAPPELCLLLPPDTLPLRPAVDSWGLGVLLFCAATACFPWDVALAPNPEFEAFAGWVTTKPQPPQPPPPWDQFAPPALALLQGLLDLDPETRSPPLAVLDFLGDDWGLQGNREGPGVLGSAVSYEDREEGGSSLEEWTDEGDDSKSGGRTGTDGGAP
# Serine/threonine-protein kinase PAK 1 (Homo sapiens), sequence (Q13153 whole entry, canonical isoform): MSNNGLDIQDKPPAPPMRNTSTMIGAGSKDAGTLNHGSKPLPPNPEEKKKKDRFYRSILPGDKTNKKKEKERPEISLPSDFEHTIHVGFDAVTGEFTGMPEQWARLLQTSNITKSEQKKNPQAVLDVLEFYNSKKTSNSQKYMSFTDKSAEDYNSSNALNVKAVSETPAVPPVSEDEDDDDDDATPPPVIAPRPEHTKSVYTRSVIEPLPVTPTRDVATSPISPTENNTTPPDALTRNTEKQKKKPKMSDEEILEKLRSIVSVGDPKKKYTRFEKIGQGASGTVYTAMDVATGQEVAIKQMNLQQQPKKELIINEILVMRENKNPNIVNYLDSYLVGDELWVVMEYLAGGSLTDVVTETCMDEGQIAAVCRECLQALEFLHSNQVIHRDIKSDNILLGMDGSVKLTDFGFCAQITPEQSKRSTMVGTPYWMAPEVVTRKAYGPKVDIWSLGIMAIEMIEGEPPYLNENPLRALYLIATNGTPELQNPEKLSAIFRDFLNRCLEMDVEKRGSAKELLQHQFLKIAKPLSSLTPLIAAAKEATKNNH
# Serine/threonine-protein kinase Nek9 (Homo sapiens), sequence (Q8TD19 whole entry): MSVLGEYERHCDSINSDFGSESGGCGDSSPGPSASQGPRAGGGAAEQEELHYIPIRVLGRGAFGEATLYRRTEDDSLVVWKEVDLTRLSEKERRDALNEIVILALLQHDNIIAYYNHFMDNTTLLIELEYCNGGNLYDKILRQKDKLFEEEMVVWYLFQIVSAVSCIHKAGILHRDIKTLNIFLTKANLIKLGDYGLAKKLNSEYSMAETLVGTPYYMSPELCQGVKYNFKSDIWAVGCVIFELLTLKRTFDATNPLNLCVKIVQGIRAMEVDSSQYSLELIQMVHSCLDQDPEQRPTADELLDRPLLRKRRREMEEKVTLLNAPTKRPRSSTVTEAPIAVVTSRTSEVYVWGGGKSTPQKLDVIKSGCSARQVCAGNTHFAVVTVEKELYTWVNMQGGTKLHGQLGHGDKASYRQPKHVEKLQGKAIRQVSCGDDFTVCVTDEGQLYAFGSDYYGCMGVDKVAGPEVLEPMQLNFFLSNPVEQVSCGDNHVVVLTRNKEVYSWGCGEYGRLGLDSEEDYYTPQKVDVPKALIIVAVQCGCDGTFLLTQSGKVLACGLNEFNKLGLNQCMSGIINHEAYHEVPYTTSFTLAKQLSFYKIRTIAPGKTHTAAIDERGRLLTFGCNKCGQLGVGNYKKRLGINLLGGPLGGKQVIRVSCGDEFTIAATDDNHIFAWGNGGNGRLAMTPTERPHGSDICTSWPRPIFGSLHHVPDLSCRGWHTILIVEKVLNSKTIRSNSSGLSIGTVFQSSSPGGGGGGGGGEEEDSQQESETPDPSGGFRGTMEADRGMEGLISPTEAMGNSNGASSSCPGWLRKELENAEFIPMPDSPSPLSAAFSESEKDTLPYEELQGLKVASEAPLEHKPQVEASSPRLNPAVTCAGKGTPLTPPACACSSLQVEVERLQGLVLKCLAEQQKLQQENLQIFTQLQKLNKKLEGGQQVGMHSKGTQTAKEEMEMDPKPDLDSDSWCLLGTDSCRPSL
# Myosin light chain kinase 2, skeletal/cardiac muscle (Homo sapiens), sequence (Q9H1R3 whole entry): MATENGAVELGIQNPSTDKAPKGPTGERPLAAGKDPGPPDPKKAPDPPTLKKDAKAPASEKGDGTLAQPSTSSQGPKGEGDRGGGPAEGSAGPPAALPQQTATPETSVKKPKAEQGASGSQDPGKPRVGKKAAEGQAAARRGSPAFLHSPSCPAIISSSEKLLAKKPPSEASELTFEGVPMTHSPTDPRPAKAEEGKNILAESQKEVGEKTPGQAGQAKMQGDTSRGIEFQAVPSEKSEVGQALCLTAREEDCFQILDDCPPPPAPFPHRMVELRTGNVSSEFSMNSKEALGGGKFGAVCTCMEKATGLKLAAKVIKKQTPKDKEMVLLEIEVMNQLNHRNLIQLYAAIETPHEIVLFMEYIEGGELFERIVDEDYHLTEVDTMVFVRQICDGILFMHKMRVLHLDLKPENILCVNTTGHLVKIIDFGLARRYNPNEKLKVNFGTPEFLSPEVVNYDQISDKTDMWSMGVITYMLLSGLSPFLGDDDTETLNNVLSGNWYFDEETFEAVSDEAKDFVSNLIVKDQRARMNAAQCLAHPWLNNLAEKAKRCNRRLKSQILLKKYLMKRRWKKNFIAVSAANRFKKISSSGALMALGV
Structure (SMILES),inhibition [1],inhibition [2],inhibition at 10 µM [3],inhibition [4],residual activity [5],residual activity [6],residual activity [7],residual activity [8],residual activity [9],residual activity [10],residual activity [11],residual activity [12],residual activity [13],residual activity [14],residual activity [15],residual activity [16],residual activity [17],residual activity [18],residual activity [19],residual activity [20],further results
CNC(=O)Nc1ccc2c(c1)[C@@]1(CC2)OC(=O)N(CC(=O)N(Cc2ccc(F)cc2)[C@@H](C)C(F)(F)F)C1=O [A-486],12%,-3%,-5% (not active),-8%,90%,90%,100%,78%,100%,92%,100%,77%,100%,95%,98%,69%,100%,84%,90%,93%,residual activity [21]: 100%; residual activity [22]: 72%; residual activity [23]: 83%; residual activity [24]: 100%; residual activity [25]: 100%; residual activity [26]: 70%; inhibition [27]: 26.6%; inhibition [28]: -8.75%; inhibition [29]: -1.33%; inhibition [30]: 30.4%
CNC(=O)Nc1ccc2c(c1)CC[C@@]21OC(=O)N(CC(=O)N(Cc2ccc(F)cc2)[C@@H](C)C(F)(F)F)C1=O [A-485],21%,13%,2% (not active),-5%,87%,70%,100%,94%,100%,83%,96%,84%,94%,78%,88%,76%,100%,86%,86%,90%,residual activity [21]: 93%; residual activity [22]: 68%; residual activity [23]: 82%; residual activity [24]: 96%; residual activity [25]: 90%; residual activity [26]: 81%; inhibition [27]: 34.6%; inhibition [28]: 15.5%; inhibition [29]: 1.93%; inhibition [30]: 11.2%
